These results are taken from US5637625A, “Propofol microdroplet formulations” (Research Triangle Pharmaceuticals Ltd., priority 1996, dated 1997).

In one data set the test system is laboratory rats. The experiment in a line: Efficacy for general anesthesia in rats (i.v. tail vein), with mortality. In kind it is in vivo, female CD laboratory rats. Conditions: 20-21 mg/kg. The protocol: Diprivan® (Diprivan® 1%, Injection propofol, 10 mg/ml, Emulsion for I.V. Administration, Stuart Pharmaceuticals) was purchased. It is described by the manufacturer as a sterile, nonpyrogenic emulsion containing 10 mg/mL propofol, 100 mg/ml soybean oil, 12 mg/mL lecithin in an aqueous vehicle. It was maintained at room temperature as described by the manufacturer. Samples were taken using aseptic technique.
Lecithin-coated propofol microdroplets containing 6.8% propofol and Diprivan® were injected into the tail veins of 150 gram female CD laboratory rats (Charles River Laboratories, Wilmington, Mass.) restrained in a Decapicone® (Braintree Scientific, Braintree, Mass.). The volumes of 6.8% (w/v) microdroplet propofol injected were 10, 20, 30 or 50 μL. The injections were accomplished in 2-3 seconds. Volumes of 1% Diprivan® injections were 100, 200, 300 or 500 μL. The injections were accomplished in 5-15 seconds. The animals were observed during the injections, and the time required for loss of consciousness ("time to unconsciousness") was recorded. Then the animals were removed from the Decapicone® and placed on their sides and were tested for startle response to a loud clap. […] The time to regain startle response ("time to startle response") was recorded. The time to recover the righting response, indicated by spontaneous attempt to stand, was also measured. […]

For data set [1] the following is noted: cited from earlier work.
For data set [2] the following is noted: pure oily state; cited from earlier work.

Take `CC(C)c1cccc(C(C)C)c1O` [Propofol, 2,6-diisopropylphenol]: in the data set on laboratory rats, the “Mortality (in words)” value is recorded as “significant mortality”. Moreover, the Water solubility entry in data set [1] was “water-insoluble”. In addition, the Irritancy result in data set [2] was “irritant”.
